This experiment addresses T1, PD-1/PD-L1 (Homo sapiens, UniProt Q9NZQ7).
T1 construct: made in house; host or cells: HEK293T
As to the kind of experiment: PD-1/PD-L1 Homogenous Time-Resolved Fluorescence (HTRF) binding assay. To be noted: PD-L1-His 10 nM, PD-1-Ig 20 nM; value given as range class; read-out: Range or IC50. The method, boiled down: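 Detection by europium cryptate anti-Ig plus APC anti-His (1 nM and 20 nM final) with HTRF signal. Buffer was dPBS, 0.1% BSA, 0.05% Tween-20.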
(TR-FRET usually uses a lanthanide donor and a delayed reading to cut background.)

T1 sequence (Q9NZQ7 with tags, fused parts or gaps): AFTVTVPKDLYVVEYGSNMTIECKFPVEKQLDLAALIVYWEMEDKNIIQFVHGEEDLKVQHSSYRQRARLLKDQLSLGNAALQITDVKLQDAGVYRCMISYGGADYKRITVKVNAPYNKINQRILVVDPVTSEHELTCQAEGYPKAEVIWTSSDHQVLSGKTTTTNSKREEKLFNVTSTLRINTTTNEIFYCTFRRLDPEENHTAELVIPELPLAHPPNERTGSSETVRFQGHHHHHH

With `Cc1c(COc2cc(OCc3cncc(C#N)c3)c(CNC(C)(CO)CO)cc2Cl)cccc1-c1cccc(OCCCN2CCCC(CO)C2)c1Cl` (centres unmarked) [Example 2098, 5-((4-chloro-5-((2′-chloro-3′-(3-(3-(hydroxymethyl)piperidin-1-yl)propoxy)-2-methyl-[1,1′-biphenyl]-3-yl)methoxy)-2-(((1,3-dihydroxy-2-methylpropan-2-yl)amino)methyl)phenoxy)methyl)nicotinonitrile], the IC50 was in the range of 0.21 to 10 nM.

As to `Cc1c(COc2cc(OCc3cncc(C(=N)N4CCCC(CO)C4)c3)c(CNC(C)(CO)CO)cc2Cl)cccc1-c1cccc(OCCCN2CCCC(CO)C2)c1Cl` (centres unmarked) [Example 2099, 2-((5-chloro-4-((2′-chloro-3′-(3-(3-(hydroxymethyl)piperidin-1-yl)propoxy)-2-methyl-[1,1′-biphenyl]-3-yl)methoxy)-2-((5-((3-(hydroxymethyl)piperidin-1-yl)(imino)methyl)pyridin-3-yl)methoxy)benzyl)amino)-2-methylpropane-1,3-diol], the IC50 was in the range of 0.21 to 10 nM.

As to `N=C(c1cncc(COc2cc(OCc3cccc(-c4cccc(OCCCN5CC[C@@H](O)C5)c4Cl)c3Cl)c(Cl)cc2CNC[C@H](O)CO)c1)N1CC[C@@H](O)C1` [Example 2101, (S)-3-((5-chloro-4-((2,2′-dichloro-3′-(3-((R)-3-hydroxypyrrolidin-1-yl)propoxy)-[1,1′-biphenyl]-3-yl)methoxy)-2-((5-(((R)-3-hydroxypyrrolidin-1-yl)(imino)methyl)pyridin-3-yl)methoxy)benzyl)amino)propane-1,2-diol], the half-maximal inhibitory concentration (IC50) was 0.21 to 10 nM.

On to `Cc1c(COc2cc(OCc3cncc(C#N)c3)c(CNC(C)(CO)CO)cc2Cl)cccc1-c1cccc(OCCCNC(C)(CO)CO)c1Cl` [Example 2102, 5-((4-chloro-5-((2′-chloro-3′-(3-((1,3-dihydroxy-2-methylpropan-2-yl)amino)propoxy)-2-methyl-[1,1′-biphenyl]-3-yl)methoxy)-2-(((1,3-dihydroxy-2-methylpropan-2-yl)amino)methyl)phenoxy)methyl)nicotinonitrile], for which the concentration for half-maximal inhibition (IC50) was 0.21 to 10 nM.

For `Cc1c(COc2cc(OCc3cncc(C#N)c3)c(CNC(C)(CO)CO)cc2Cl)cccc1-c1cccc(OCCCN2CC[C@@H](O)C2)c1Cl` [Example 2104, (R)-5-((4-chloro-5-((2′-chloro-3′-(3-(3-hydroxypyrrolidin-1-yl)propoxy)-2-methyl-[1,1′-biphenyl]-3-yl)methoxy)-2-(((1,3-dihydroxy-2-methylpropan-2-yl)amino)methyl)phenoxy)methyl)nicotinonitrile], the 50% inhibitory concentration (IC50) lay in the range of 0.21 to 10 nM. The figure for `Cc1c(COc2cc(OCc3cncc(C(=N)N4CC[C@@H](O)C4)c3)c(CNC(C)(CO)CO)cc2Cl)cccc1-c1cccc(OCCCN2CC[C@@H](O)C2)c1Cl` [Example 2105, 2-((5-chloro-4-((2′-chloro-3′-(3-((R)-3-hydroxypyrrolidin-1-yl)propoxy)-2-methyl-[1,1′-biphenyl]-3-yl)methoxy)-2-((5-(((R)-3-hydroxypyrrolidin-1-yl)(imino)methyl)pyridin-3-yl)methoxy)benzyl)amino)-2-methylpropane-1,3-diol] is 0.21 to 10 nM; for `N#Cc1cncc(COc2cc(OCc3cccc(-c4cccc(OCCCN5CC[C@@H](O)C5)c4Cl)c3Cl)c(Cl)cc2CN2CCCC[C@H]2C(=O)O)c1` [Example 2106, (S)-1-(5-chloro-2-((5-cyanopyridin-3-yl)methoxy)-4-((2,2′-dichloro-3′-(3-((R)-3-hydroxypyrrolidin-1-yl)propoxy)-[1,1′-biphenyl]-3-yl)methoxy)benzyl)piperidine-2-carboxylic Acid] it is 0.21 to 10 nM; for `CC(CO)(CO)NCc1cc(Cl)c(OCc2cccc(-c3cccc(OCCCN4CC[C@@H](O)C4)c3Cl)c2Cl)cc1OCCC(F)(F)F` [Example 2107, (R)-2-((5-chloro-4-((2,2′-dichloro-3′-(3-(3-hydroxypyrrolidin-1-yl)propoxy)-[1,1′-biphenyl]-3-yl)methoxy)-2-(3,3,3-trifluoropropoxy)benzyl)amino)-2-methylpropane-1,3-diol] it is 0.21 to 10 nM. As for `CN(C)CCOc1cc(OCc2cccc(-c3cccc(OCCCN4CC[C@@H](O)C4)c3Cl)c2Cl)c(Cl)cc1CNC(C)(CO)CO` [Example 2108, (R)-2-((5-chloro-4-((2,2′-dichloro-3′-(3-(3-hydroxypyrrolidin-1-yl)propoxy)-[1,1′-biphenyl]-3-yl)methoxy)-2-(2-(dimethylamino)ethoxy)benzyl)amino)-2-methylpropane-1,3-diol], the IC50 was 0.21 to 10 nM. `COCC(COC)NCc1cc(Cl)c(OCc2cccc(-c3cccc(OCCCN4CC[C@@H](O)C4)c3Cl)c2C)cc1OCc1cncc(C#N)c1` [Example 2109, (R)-5-((4-chloro-5-((2′-chloro-3′-(3-(3-hydroxypyrrolidin-1-yl)propoxy)-2-methyl-[1,1′-biphenyl]-3-yl)methoxy)-2-(((1,3-dimethoxypropan-2-yl)amino)methyl)phenoxy)methyl)nicotinonitrile]: the IC50 is 0.21 to 10 nM. `Cc1c(COc2cc(OCc3cncc(C#N)c3)c(CNC3(CO)COC3)cc2Cl)cccc1-c1cccc(OCCCN2CC[C@@H](O)C2)c1Cl` [Example 2110, (R)-5-((4-chloro-5-((2′-chloro-3′-(3-(3-hydroxypyrrolidin-1-yl)propoxy)-2-methyl-[1,1′-biphenyl]-3-yl)methoxy)-2-(((3-(hydroxymethyl)oxetan-3-yl)amino)methyl)phenoxy)methyl)nicotinonitrile]: the IC50 was in the range of 0.21 to 10 nM. As to `CCN(Cc1cc(Cl)c(OCc2cccc(-c3cccc(OCCCN4CC[C@@H](O)C4)c3Cl)c2C)cc1OCc1cncc(C#N)c1)C(CO)CO` [Example 2111, (R)-5-((4-chloro-5-((2′-chloro-3′-(3-(3-hydroxypyrrolidin-1-yl)propoxy)-2-methyl-[1,1′-biphenyl]-3-yl)methoxy)-2-(((1,3-dihydroxypropan-2-yl)(ethyl)amino)methyl)phenoxy)methyl)nicotinonitrile], the IC50 is 0.21 to 10 nM. The figure for `CC(CO)(CO)NCc1cc(Cl)c(OCc2cccc(-c3cccc(OCCCN4CC[C@@H](O)C4)c3Cl)c2Cl)cc1OCc1cc(Cl)ccc1Cl` [Example 2112, (R)-2-((5-chloro-4-((2,2′-dichloro-3′-(3-(3-hydroxypyrrolidin-1-yl)propoxy)-[1,1′-biphenyl]-3-yl)methoxy)-2-((2,5-dichlorobenzyl)oxy)benzyl)amino)-2-methylpropane-1,3-diol] is 0.21 to 10 nM. The figure for `Cc1c(COc2cc(OCc3cncc(C#N)c3)c(CN(CC3CC3)C(CO)CO)cc2Cl)cccc1-c1cccc(OCCCN2CC[C@@H](O)C2)c1Cl` [Example 2113, (R)-5-((4-chloro-5-((2′-chloro-3′-(3-(3-hydroxypyrrolidin-1-yl)propoxy)-2-methyl-[1,1′-biphenyl]-3-yl)methoxy)-2-(((cyclopropylmethyl)(1,3-dihydroxypropan-2-yl)amino)methyl)phenoxy)methyl)nicotinonitrile] is 0.21 to 10 nM; for `Cc1c(COc2cc(OCc3cncc(C#N)c3)c(CN(CC3CC3)C(C)(CO)CO)cc2Cl)cccc1-c1cccc(OCCCN2CC[C@@H](O)C2)c1Cl` [Example 2114, (R)-5-((4-chloro-5-((2′-chloro-3′-(3-(3-hydroxypyrrolidin-1-yl)propoxy)-2-methyl-[1,1′-biphenyl]-3-yl)methoxy)-2-(((cyclopropylmethyl)(1,3-dihydroxy-2-methylpropan-2-yl)amino)methyl)phenoxy)methyl)nicotinonitrile] it is 0.21 to 10 nM; for `Cc1c(COc2cc(OCc3cncc(C#N)c3)c(CN3CCOC[C@H]3CO)cc2Cl)cccc1-c1cccc(OCCCN2CC[C@@H](O)C2)c1Cl` [Example 2115, 5-((4-chloro-5-((2′-chloro-3′-(3-((R)-3-hydroxypyrrolidin-1-yl)propoxy)-2-methyl-[1,1′-biphenyl]-3-yl)methoxy)-2-(((R)-3-(hydroxymethyl)morpholino)methyl)phenoxy)methyl)nicotinonitrile] it is 0.21 to 10 nM. With `Cc1c(COc2cc(OCc3cncc(C#N)c3)c(CNC[C@H](O)CO)cc2Cl)cccc1-c1cccc(OCCCO)c1Cl` [Example 2116, (S)-5-((4-chloro-5-((2′-chloro-3′-(3-hydroxypropoxy)-2-methyl-[1,1′-biphenyl]-3-yl)methoxy)-2-(((2,3-dihydroxypropyl)amino)methyl)phenoxy)methyl)nicotinonitrile] the figure was 0.21 to 10 nM. With `Cc1c(COc2cc(OCc3cncc(C(N)=O)c3)c(CNC[C@H](O)CO)cc2Cl)cccc1-c1cccc(OCCCO)c1Cl` [Example 2117, (S)-5-((4-chloro-5-((2′-chloro-3′-(3-hydroxypropoxy)-2-methyl-[1,1′-biphenyl]-3-yl)methoxy)-2-(((2,3-dihydroxypropyl)amino)methyl)phenoxy)methyl)nicotinamide], the half-maximal inhibitory concentration (IC50) is 0.21 to 10 nM. As for `Cc1c(COc2cc(OCc3cncc(C#N)c3)c(CNC(C)(CO)CO)cc2Cl)cccc1-c1cccc(OCCC(=O)NC[C@H](O)CO)c1Cl` [Example 2118, (S)-3-((2-chloro-3′-((2-chloro-5-((5-cyanopyridin-3-yl)methoxy)-4-(((1,3-dihydroxy-2-methylpropan-2-yl)amino)methyl)phenoxy)methyl)-2′-methyl-[1,1′-biphenyl]-3-yl)oxy)-N-(2,3-dihydroxypropyl)propanamide], the IC50 lay in the range of 0.21 to 10 nM. Turning to `Cc1c(COc2cc(OCc3cncc(C#N)c3)c(CNC(C)(CO)CO)cc2Cl)cccc1-c1cccc(OC[C@H]2CCN(CC(O)CO)C2)c1Cl` (stereo partly drawn) [Example 2119, 5-((4-chloro-5-((2′-chloro-3′-(((3S)-1-(2,3-dihydroxypropyl)pyrrolidin-3-yl)methoxy)-2-methyl-[1,1′-biphenyl]-3-yl)methoxy)-2-(((1,3-dihydroxy-2-methylpropan-2-yl)amino)methyl)phenoxy)methyl)nicotinonitrile], the IC50 fell in the range of 0.21 to 10 nM.

Usually IC50 stands for the midpoint of a concentration-inhibition curve.

The record behind these values is patent publication US10745382B2 (BRISTOL-MYERS SQUIBB COMPANY, priority 2015, dated 2020).
